In patent publication US8808702B2, “Sulfide, sulfoxide and sulfone chalcone analogues, derivatives thereof and therapeutic uses thereof” (Temple University-of the Commonwealth System of Higher …, priority 2006, dated 2014):
Like-named read-outs stand apart in the source and are kept apart here.

Legend:
DU145 (prostate cancer) = experiment: Effect of compounds on tumor cell lines (assay of Latham et al.), DU145; format: cell-based; settings: DU145 cells, read-out: DU 145 potency (IC50)
Outline: (§1)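 After 96 h of exposure to compound (1–100 μM in DMSO; one compound at 0.1–100 μM), effects were scored by inverted-microscope inspection, with trypan blue viable counts by hemacytometer when required. Cells were seeded at 2.5×10^4 per well and dosed 24 h after plating.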

[1] = tested on: K562 (chronic myelogenous leukaemia); experiment: Effect of compounds on tumor cell lines (assay of Latham et al.), K562; format: cell-based; settings: K562 cells, read-out: K 562 potency (IC50)
Outline: as §1

[2] = 96 hours after treatment, 1 μM to 100 μM
[3] = Table 1, examined 96 hours after treatment, 1 μM to 100 μM in DMSO
[4] = Table 3, examined 96 hours after treatment, 1 μM to 100 μM in DMSO
[5] = Homo sapiens, DU-145, Table 4, examined 96 hours after treatment, 1 μM to 100 μM in DMSO
[6] = Homo sapiens, Table 4, examined 96 hours after treatment, 1 μM to 100 μM in DMSO

| IC50 (DU145 (prostate cancer); [2]) [µM] | IC50 [1, 2] [µM] | SMILES | IC50 (DU145 (prostate cancer); [3]) [µM] | IC50 [1, 3] [µM] | further results |
| --- | --- | --- | --- | --- | --- |
| 25 to 50 | 1 to 10 | O=C(/C(=C\c1ccc(Cl)cc1)SCc1ccc(Br)cc1)c1ccccc1Cl [Example 169] | – | – | – |
| 1 to 10 | 50 to 100 | Cc1ccc(C)c(C=C(SCc2ccc(F)cc2)C(=O)c2ccc(Br)cc2)c1 [Example 235] | – | – | – |
| – | – | O=C(C(=Cc1ccc(O)cc1O)Sc1ccc(Br)cc1)c1ccc(Cl)cc1 [Example 16] | 50 to 100 | 25 to 50 | – |
| – | – | Cc1ccc(SC(=Cc2ccc(N(C)C)cc2)C(=O)c2ccc(Cl)cc2)cc1 [Example 102] | > 100 | > 100 | – |
| 1 to 10 | 1 to 10 | N#Cc1ccc(C(=O)C(=Cc2ccc([N+](=O)[O-])c(O)c2)SCc2ccc(Br)cc2)cc1 [Example 157] | – | – | – |
| 50 to 100 | 50 to 100 | Cc1ccc(C=C(SCc2ccc(Cl)cc2Cl)C(=O)c2ccc(Cl)cc2)s1 [Example 124] | – | – | – |
| – | – | O=C(/C(=C\c1ccc(F)cc1C(F)(F)F)[S+]([O-])Cc1ccc(Cl)cc1)c1ccc(Cl)cc1 (stereo not shown) [Example 355] | – | – | IC50 (DU145 (prostate cancer); [4]): 50 to 100 µM; IC50 [1, 4]: 50 to 100 µM |
| 25 to 50 | 25 to 50 | COc1cc(/C=C(/SCc2ccc(Br)cc2)C(=O)c2ccc(Br)cc2)cc([N+](=O)[O-])c1O [Example 174] | – | – | – |
| – | – | Cc1ccc(SC(=Cc2ccc(Br)cc2)C(=O)c2ccc(Cl)cc2)cc1 [Example 88] | 25 to 50 | 50 to 100 | – |
| 25 to 50 | 25 to 50 | Cc1ccc(C=C(SCc2ccc(Cl)cc2)C(=O)c2ccc([N+](=O)[O-])cc2)s1 [Example 231] | – | – | – |
| 10 to 25 | 10 to 25 | Cc1ccc(CSC(=Cc2cc(C)ccc2C)C(=O)c2ccc(Cl)cc2)cc1 [Example 273] | – | – | – |
| 25 to 50 | 1 to 10 | CCOc1ccc(C=C(SCc2ccc(Cl)c(Cl)c2)C(=O)c2ccc(Cl)cc2)cc1OC [Example 143] | – | – | – |
| – | – | O=C(C(=Cc1c[nH]c2ccccc12)Sc1ccc(Br)cc1)c1ccc(Br)cc1 [Example 31] | 1 to 10 | 1 to 10 | – |
| 25 to 50 | 25 to 50 | O=C(C(=Cc1c(O)cc(O)cc1O)SCc1ccc(Cl)c(Cl)c1)c1ccc(Cl)cc1 [Example 136] | – | – | – |
| 10 to 25 | 10 to 25 | COc1cc(OC)c(C=C(SCc2ccc(Cl)c(Cl)c2)C(=O)c2ccc(Cl)cc2)c(OC)c1 [Example 137] | – | – | – |
| – | – | Cc1ccc(SC(=Cc2ccc(F)c(C)c2)C(=O)c2ccc(Br)cc2)cc1 [Example 95] | 25 to 50 | 1 to 10 | – |
| 1 to 10 | 1 to 10 | CC1=CC(=O)C(C)=C(C(C)(C)CC(=O)Oc2ccc(C(=O)/C(=C\c3ccc(F)c([N+](=O)[O-])c3)SCc3ccc(F)cc3)cc2)C1=O [Example 339] | – | – | – |
| 1 to 10 | 10 to 25 | O=C(C(=Cc1ccc(OCc2ccccc2)cc1)SCc1ccc(Cl)cc1)c1ccc(Cl)cc1 [Example 212] | – | – | – |
| 10 to 25 | 10 to 25 | COc1ccc(OC)c(C=C(SCc2ccc(Cl)c(Cl)c2)C(=O)c2ccc(Cl)cc2)c1 [Example 138] | – | – | – |
| 1 to 10 | 1 to 10 | O=C(/C(=C\c1ccc(F)c([N+](=O)[O-])c1)SCc1ccc(F)cc1)c1ccc(OCCCN2CCOCC2)cc1 [Example 340] | – | – | – |

| IC50 (DU145 (prostate cancer); [2]) [µM] | IC50 [1, 2] [µM] | SMILES | IC50 (DU145 (prostate cancer); [3]) [µM] | IC50 [1, 3] [µM] | further results |
| --- | --- | --- | --- | --- | --- |
| – | – | O=C(/C(=C\c1ccc(Br)cc1)S(=O)(=O)Cc1ccc(F)cc1)c1ccc(Cl)cc1 [Example 410] | – | – | IC50 (DU145 (prostate cancer); [5]): > 100 µM; IC50 [1, 6]: 50 to 100 µM |
| – | – | COc1cc(C=C(Sc2ccc(Br)cc2)C(=O)c2ccc(Br)cc2)ccc1O [Example 41] | 1 to 10 | 1 to 10 | – |
| 50 to 100 | 50 to 100 | CCN(CC)CCNC(=O)c1c(C)[nH]c(/C=C(/SCc2ccc(Br)cc2)C(=O)c2ccc(C(=O)O)cc2)c1C [Example 163] | – | – | – |
| – | – | O=C(C(=Cc1ccc(Cl)cc1)Sc1ccc(Br)cc1)c1ccc(Br)cc1 [Example 38] | 1 to 10 | 1 to 10 | – |
| – | – | CC(=O)Oc1ccc(C=C(Sc2ccc(C)cc2)C(=O)c2ccc(Cl)cc2)cc1 [Example 86] | 10 to 25 | 1 to 10 | – |
| 10 to 25 | 1 to 10 | O=C(C(=Cc1ccc([N+](=O)[O-])c(O)c1)SCc1ccc(Br)cc1)c1ccc(Br)cc1 [Example 155] | – | – | – |
| – | – | O=C(/C(=C\c1cc(Cl)c(O)c(Cl)c1)S(=O)(=O)Cc1ccc(Br)cc1)c1ccc(Br)cc1 [Example 369] | – | – | IC50 (DU145 (prostate cancer); [5]): 25 to 50 µM; IC50 [1, 6]: 25 to 50 µM |
| 10 to 25 | 10 to 25 | O=C(/C(=C\c1ccc([N+](=O)[O-])c(O)c1)SCc1ccc(Br)cc1)c1cc(Cl)ccc1O [Example 161] | – | – | – |
| – | – | Cc1ccc(SC(=Cc2sccc2C)C(=O)c2ccc(Cl)cc2)cc1 [Example 84] | 50 to 100 | 50 to 100 | – |
| 10 to 25 | 1 to 10 | O=C(/C(=C\c1ccc(F)c([N+](=O)[O-])c1)SCc1ccc(F)cc1)c1ccc(SCc2ccc(F)cc2)c([N+](=O)[O-])c1 [Example 335] | – | – | – |
| > 100 | 50 to 100 | O=C(O)c1ccc(C(=O)C(=Cc2ccc(O)c([N+](=O)[O-])c2)SCc2ccc(F)cc2)cc1 [Example 262] | – | – | – |
| 1 to 10 | 1 to 10 | O=C(C(=Cc1cccc(Cl)c1Cl)SCc1ccc(Cl)cc1Cl)c1ccc(Cl)cc1 [Example 114] | – | – | – |
| 25 to 50 | 10 to 25 | CN(C)c1ccc(C=C(SCc2ccc(F)cc2)C(=O)c2ccc(C(=O)O)cc2)cc1 [Example 250] | – | – | – |
| 10 to 25 | 1 to 10 | Cc1cc(C)cc(C=C(SCc2ccc(F)cc2)C(=O)c2ccc(Br)cc2)c1 [Example 242] | – | – | – |
| 10 to 25 | 1 to 10 | COc1ccc(C=C(SCc2ccc(F)cc2)C(=O)c2ccc(C(=O)O)cc2)cc1O [Example 244] | – | – | – |
| 1 to 10 | ≤ 1 | O=C(O)c1ccc(C(=O)/C(=C\c2ccc(F)c([N+](=O)[O-])c2)SCc2ccc(C(F)(F)F)cc2)cc1 [Example 351] | – | – | – |
| 1 to 10 | 1 to 10 | COc1ccccc1C=C(SCc1ccc(Cl)cc1)C(=O)c1ccc(Cl)cc1 [Example 199] | – | – | – |
| – | – | CC(=O)c1ccc(C=C(Sc2ccc(C)cc2)C(=O)c2ccc(Br)cc2)cc1 [Example 87] | 50 to 100 | 50 to 100 | – |
| – | – | COc1ccc(C(=O)C(=Cc2ccc(Br)cc2)Sc2ccc(F)cc2)cc1 [Example 57] | > 100 | > 100 | – |
| – | – | O=C(C(=Cc1ccc(O)c([N+](=O)[O-])c1)Sc1c(F)c(F)c(F)c(F)c1F)c1ccc(Br)cc1 [Example 2] | 10 to 25 | 10 to 25 | – |

| IC50 (DU145 (prostate cancer); [2]) [µM] | IC50 [1, 2] [µM] | SMILES | IC50 (DU145 (prostate cancer); [3]) [µM] | IC50 [1, 3] [µM] | further results |
| --- | --- | --- | --- | --- | --- |
| 1 to 10 | 1 to 10 | O=C(O)c1ccc(C(=O)/C(=C\c2ccc(F)c([N+](=O)[O-])c2)SCc2nc3ccc(Br)cc3[nH]2)cc1 [Example 352] | – | – | – |
| – | – | Cc1ccc(SC(=Cc2c(F)c(F)c(F)c(F)c2F)C(=O)c2ccc(Cl)cc2)cc1 [Example 65] | 25 to 50 | 25 to 50 | – |
| – | – | O=C(C(=Cc1ccc(F)cc1F)Sc1ccc(Br)cc1)c1ccc(Br)cc1 [Example 17] | 1 to 10 | 1 to 10 | – |
| 10 to 25 | 10 to 25 | COc1ccc(C(=O)/C(=C\c2ccc(O)c([N+](=O)[O-])c2)SCc2ccc(Br)cc2)cc1 [Example 183] | – | – | – |
| 25 to 50 | 1 to 10 | CN(C)c1ccc(C=C(SCc2ccc(F)cc2)C(=O)c2ccc(Br)cc2)cc1 [Example 249] | – | – | – |
| 1 to 10 | ≤ 1 | O=C(/C(=C\c1ccc(F)c([N+](=O)[O-])c1)SCc1ccc(F)cc1)c1ccccc1 [Example 344] | – | – | – |
| 25 to 50 | 25 to 50 | COc1ccc(C=C(SCc2ccc(Cl)cc2)C(=O)c2ccc(C(=O)O)cc2)cc1 [Example 227] | – | – | – |
| 1 to 10 | ≤ 1 | Cc1ccc(CSC(=Cc2ccc(Cl)c([N+](=O)[O-])c2)C(=O)c2ccc(C(=O)O)cc2)cc1 [Example 287] | – | – | – |
| – | – | O=C(C(=Cc1ccc(O)c([N+](=O)[O-])c1)Sc1ccccc1Br)c1ccc(Cl)cc1 [Example 11] | 25 to 50 | 10 to 25 | – |
| 25 to 50 | 25 to 50 | Cc1ccsc1C=C(SCc1ccc(Cl)cc1)C(=O)c1ccc(Br)cc1 [Example 205] | – | – | – |
| – | – | Cc1ccc(C=C(Sc2ccc(F)cc2)C(=O)c2ccc(Cl)cc2)s1 [Example 60] | 25 to 50 | 25 to 50 | – |
| 10 to 25 | 1 to 10 | CN1CCN(c2ccc(C=C(SCc3ccc(Br)cc3)C(=O)c3ccc(C(=O)O)cc3)cc2[N+](=O)[O-])CC1 [Example 308] | – | – | – |
| – | – | Cc1ccc(SC(=Cc2ccc(F)c([N+](=O)[O-])c2)C(=O)c2ccc(Br)cc2)cc1 [Example 113] | 1 to 10 | 1 to 10 | – |
| 25 to 50 | 1 to 10 | CSc1ccc(C=C(SCc2ccc(Cl)cc2)C(=O)c2ccc(Cl)cc2)cc1 [Example 224] | – | – | – |
| 1 to 10 | 1 to 10 | O=C(C(=Cc1c[nH]c2ccc(Cl)cc12)SCc1ccc(F)cc1)c1ccc(Br)cc1 [Example 267] | – | – | – |
| – | – | COc1ccc(C=C(Sc2ccc(C)cc2)C(=O)c2ccc(Br)cc2)cc1 [Example 99] | 50 to 100 | 10 to 25 | – |
| 10 to 25 | 1 to 10 | Cc1ccc(CSC(=Cc2ccc(O)cc2)C(=O)c2ccc(Cl)cc2)cc1 [Example 292] | – | – | – |
| 50 to 100 | 50 to 100 | O=C(O)c1ccc(C(=O)/C(=C\c2ccc(O)c([N+](=O)[O-])c2)SCc2ccc(Br)cc2)cc1 [Example 181] | – | – | – |
| > 100 | > 100 | O=C(C(=Cc1ccc(F)c([N+](=O)[O-])c1)SCc1ccc(Br)cc1)c1ccc(Cl)c([N+](=O)[O-])c1 [Example 317] | – | – | – |
